In PubChem BioAssay AID588394 (NMMLSC, 2011):
The source made the active and inactive calls.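 How the source made its calls: active means half-maximal effective concentration at most 10 microM and response span at least 30% from a well-fitted curve; inactive means the rest.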

target: Rab7 GTPase wild-type (Canis lupus familiaris), GST fusion; assay: blockers of fluorescent GTP uptake by Rab7 – biochemical, dog Rab7, bead multiplex flow cytometry, round 1, SAR follow-up (AID 588394); conditions: Bead-based flow cytometry, Bodipy-FL-GTP binding, EDTA

EC50 [nM]	Compound
126	COc1ccc(C(=O)NC(=S)Nc2sc3c(c2C(=O)O)CC(C)(C)OC3)cc1
56	CC1(C)Cc2c(sc(NC(=S)NC(=O)c3ccccc3F)c2C(=O)O)CO1
46	CC1(C)Cc2c(sc(NC(=S)NC(=O)c3ccccc3Br)c2C(=O)O)CO1
55	COc1cccc(C(=O)NC(=S)Nc2sc3c(c2C(=O)O)CC(C)(C)OC3)c1
2280	CC1(C)Cc2c(sc(NC(=S)NC(=O)c3cccc(Br)c3)c2C(=O)O)CO1
72	CC1(C)CCc2sc(NC(=S)NC(=O)c3ccccc3)c(C(=O)O)c2C1
308	CC1(C)Cc2c(sc(NC(=S)NC(=O)c3cccc(F)c3)c2C(=O)O)CO1
269	CC1(C)Cc2c(sc(NC(=S)NC(=O)c3ccc(Br)cc3)c2C(=O)O)CO1

same assay, conditions: Bead-based flow cytometry, Bodipy-FL-GTP binding, EDTA; at 100 µM (top of the series)

percent response, lower = inhibition	Compound
inactive	CCOC(=O)c1c(NC(=S)Nc2ccccc2)sc2c1CC(C)(C)OC2
inactive	CN1CCc2c(sc3nc(Nc4ccc(F)cc4)oc(=O)c23)C1
inactive	CC(C)(C)OC(=O)c1c(NC(=S)NC(=O)c2ccccc2)sc2c1CCOC2
inactive	CC1(C)Cc2c(sc(NC(=S)Nc3ccccc3)c2C(=O)O)CO1
inactive	CCOC(=O)c1c(NC(=O)Nc2ccc(C)cc2)sc2c1CCN(C)C2
inactive	CCOC(=O)c1c(NC(=O)Nc2ccc(F)cc2)sc2c1CCN(C)C2
inactive	CCOC(=O)c1c(NC(=O)NC(C)(C)C)sc2c1CCN(C)C2
inactive	CCOC(=O)c1c(NC(=S)NC(=O)c2ccccc2)sc2ccccc12
inactive	COC(=O)c1c(N)sc2c1CC(C)(C)OC2
inactive	Cc1ccc(Nc2nc3sc4c(c3c(=O)o2)CCN(C)C4)cc1
inactive	CN1CCc2c(sc(NC(=O)Nc3ccc(F)cc3)c2C(=O)O)C1
inactive	CCOC(=O)c1c(N)sc2ccccc12
inactive	CC1(C)Cc2c(sc(NC(=O)Cc3ccccc3)c2C(=O)O)CO1
inactive	Cc1ccc(NC(=O)Nc2sc3c(c2C(=O)O)CCN(C)C3)cc1
